# Laboratory results from ChEMBL document CHEMBL1201862, “PubChem BioAssay data set” (2004).
# Structures can show the parent of a compound that is named as a salt. Calls of active or inactive are those of the source.
# Key:
# [1] = target: T1, Sentrin-specific protease 8 (Homo sapiens, UniProt Q96LD8); assay type: functional
# T1 sequence (Q96LD8 whole entry): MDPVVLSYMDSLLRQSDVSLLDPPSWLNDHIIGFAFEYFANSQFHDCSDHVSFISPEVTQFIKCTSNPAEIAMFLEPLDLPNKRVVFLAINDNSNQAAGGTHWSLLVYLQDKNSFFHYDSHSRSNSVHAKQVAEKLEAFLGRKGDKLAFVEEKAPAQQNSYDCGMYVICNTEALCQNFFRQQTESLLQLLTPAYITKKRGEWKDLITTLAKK
# [2] = target: T1, Sentrin-specific protease 8; assay type: functional; remark: listed apart in the source
# [3] = target: Heat shock protein HSP 90-alpha (Homo sapiens, UniProt P07900); assay type: functional, organism-based
# Vero [4] = assay: viability of Vero cells under compound – cytotoxicity control for flavivirus capping enzyme inhibitors (AID 588742); assay type: functional; settings: Chlorocebus sabaeus
# Estrogen receptor = target: T2, Estrogen receptor (Homo sapiens, UniProt P03372);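 also: potency for inhibiting coactivator peptide recruitment to the receptor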
# T2 sequence (P03372 whole entry): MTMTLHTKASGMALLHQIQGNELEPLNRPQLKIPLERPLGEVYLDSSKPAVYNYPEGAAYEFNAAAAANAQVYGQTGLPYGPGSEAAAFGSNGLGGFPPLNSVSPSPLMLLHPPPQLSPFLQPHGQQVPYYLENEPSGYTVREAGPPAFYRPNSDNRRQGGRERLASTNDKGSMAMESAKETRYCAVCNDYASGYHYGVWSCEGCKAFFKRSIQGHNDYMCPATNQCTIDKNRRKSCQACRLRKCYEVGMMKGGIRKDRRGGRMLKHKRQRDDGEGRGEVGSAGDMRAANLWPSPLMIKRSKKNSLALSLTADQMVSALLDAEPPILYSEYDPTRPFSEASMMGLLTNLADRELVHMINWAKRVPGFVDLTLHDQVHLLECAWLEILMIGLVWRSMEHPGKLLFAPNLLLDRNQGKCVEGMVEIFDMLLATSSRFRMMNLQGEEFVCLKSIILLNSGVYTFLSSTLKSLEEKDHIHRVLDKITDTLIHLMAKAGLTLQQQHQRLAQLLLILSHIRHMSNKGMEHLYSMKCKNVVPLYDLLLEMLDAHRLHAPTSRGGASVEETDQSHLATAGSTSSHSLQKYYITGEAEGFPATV
# [5] = loss of viability in HepG2 cells – cell-based, CellTiter-Glo, cherry-picked, cytotoxicity control for Shn3 inhibitor project, dose response (AID 624134); assay type: functional
# [6] = non-specific 3'UTR reporter inhibition in Clone20-Shn3RL – cell-based, Renilla luciferase, cherry-picked, counter-screen for Shn3 inhibitor project, dose response (AID 624133); assay type: functional
# [7] = reduction of Shn3 3'UTR-driven luciferase in osteoblasts – cell-based, Clone20 osteoblasts, firefly luciferase, cherry-picked, dose response (AID 624132); assay type: functional;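 also: firefly luciferase luminescence from reporter carrying the Shn3 3'UTR in osteoblasts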
# [8] = target: Ras and Rab interactor 1/Tyrosine-protein kinase ABL1 (Homo sapiens, UniProt P00519+Q13671); assay type: functional;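 also: biochemical TR-FRET dose-response test measuring inhibition of binding between Rin1 and Abl proteins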
# Sequence of Ras and Rab interactor 1/Tyrosine-protein kinase ABL1 (P00519 whole entry): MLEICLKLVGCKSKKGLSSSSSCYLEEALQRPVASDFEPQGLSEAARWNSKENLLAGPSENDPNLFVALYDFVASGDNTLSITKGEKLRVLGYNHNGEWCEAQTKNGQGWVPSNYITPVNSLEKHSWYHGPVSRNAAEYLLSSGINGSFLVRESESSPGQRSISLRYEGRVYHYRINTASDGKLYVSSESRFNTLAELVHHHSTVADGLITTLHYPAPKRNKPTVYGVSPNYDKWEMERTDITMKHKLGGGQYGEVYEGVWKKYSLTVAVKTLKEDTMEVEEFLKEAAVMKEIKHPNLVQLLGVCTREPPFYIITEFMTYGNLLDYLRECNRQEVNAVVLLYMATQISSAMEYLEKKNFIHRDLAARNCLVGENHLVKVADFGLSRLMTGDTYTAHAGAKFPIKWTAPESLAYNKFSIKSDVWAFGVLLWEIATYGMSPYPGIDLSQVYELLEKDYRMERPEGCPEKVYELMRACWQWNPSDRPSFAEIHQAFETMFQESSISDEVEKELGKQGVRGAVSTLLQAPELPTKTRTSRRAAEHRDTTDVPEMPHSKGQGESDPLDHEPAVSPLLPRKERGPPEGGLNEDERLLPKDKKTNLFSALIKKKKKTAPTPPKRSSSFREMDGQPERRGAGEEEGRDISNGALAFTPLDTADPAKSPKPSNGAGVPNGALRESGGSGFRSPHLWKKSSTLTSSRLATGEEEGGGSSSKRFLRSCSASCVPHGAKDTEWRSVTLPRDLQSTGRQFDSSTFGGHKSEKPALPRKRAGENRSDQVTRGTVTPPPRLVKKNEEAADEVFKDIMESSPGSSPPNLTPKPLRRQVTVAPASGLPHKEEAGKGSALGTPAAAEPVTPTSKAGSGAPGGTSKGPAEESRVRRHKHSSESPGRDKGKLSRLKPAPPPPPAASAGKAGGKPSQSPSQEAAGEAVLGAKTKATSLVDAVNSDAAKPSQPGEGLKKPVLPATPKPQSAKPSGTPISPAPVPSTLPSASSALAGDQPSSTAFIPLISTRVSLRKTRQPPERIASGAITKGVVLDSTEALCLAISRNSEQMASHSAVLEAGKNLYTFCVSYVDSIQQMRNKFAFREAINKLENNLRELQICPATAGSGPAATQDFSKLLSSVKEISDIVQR
# Sequence of Ras and Rab interactor 1/Tyrosine-protein kinase ABL1 (Q13671 whole entry): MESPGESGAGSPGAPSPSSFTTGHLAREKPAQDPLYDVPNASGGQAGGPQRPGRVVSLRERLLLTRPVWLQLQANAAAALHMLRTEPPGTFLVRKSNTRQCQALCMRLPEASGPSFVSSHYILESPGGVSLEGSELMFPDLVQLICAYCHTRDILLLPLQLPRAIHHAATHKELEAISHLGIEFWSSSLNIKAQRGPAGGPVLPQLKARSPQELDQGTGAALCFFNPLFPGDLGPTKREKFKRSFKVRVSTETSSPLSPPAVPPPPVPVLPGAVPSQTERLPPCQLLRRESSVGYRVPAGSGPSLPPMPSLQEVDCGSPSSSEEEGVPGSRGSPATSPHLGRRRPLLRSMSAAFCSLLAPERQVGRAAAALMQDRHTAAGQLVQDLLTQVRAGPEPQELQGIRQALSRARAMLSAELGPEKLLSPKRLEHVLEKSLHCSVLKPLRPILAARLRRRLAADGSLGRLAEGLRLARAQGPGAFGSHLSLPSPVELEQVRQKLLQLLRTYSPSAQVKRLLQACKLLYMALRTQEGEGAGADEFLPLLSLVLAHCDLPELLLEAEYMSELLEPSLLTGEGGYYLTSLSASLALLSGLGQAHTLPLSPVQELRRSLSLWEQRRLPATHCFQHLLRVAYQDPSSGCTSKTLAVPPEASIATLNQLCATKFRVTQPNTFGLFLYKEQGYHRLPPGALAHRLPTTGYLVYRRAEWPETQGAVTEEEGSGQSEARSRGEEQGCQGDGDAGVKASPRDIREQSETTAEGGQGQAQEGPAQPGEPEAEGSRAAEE
# Paired box protein Pax-8 = Paired box protein Pax-8 (Homo sapiens, UniProt Q06710); assay: PAX8 transcriptional activity inhibition in RMG-I – RMG-I cells, luciferase, cherry-pick, dose response (AID 687027); assay type: functional, cell-based;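 also: luciferase reporter driven by Pax8 target thyroperoxidase promoter measured by SteadyGlo luminescence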
# Sequence of Paired box protein Pax-8 (Q06710 whole entry): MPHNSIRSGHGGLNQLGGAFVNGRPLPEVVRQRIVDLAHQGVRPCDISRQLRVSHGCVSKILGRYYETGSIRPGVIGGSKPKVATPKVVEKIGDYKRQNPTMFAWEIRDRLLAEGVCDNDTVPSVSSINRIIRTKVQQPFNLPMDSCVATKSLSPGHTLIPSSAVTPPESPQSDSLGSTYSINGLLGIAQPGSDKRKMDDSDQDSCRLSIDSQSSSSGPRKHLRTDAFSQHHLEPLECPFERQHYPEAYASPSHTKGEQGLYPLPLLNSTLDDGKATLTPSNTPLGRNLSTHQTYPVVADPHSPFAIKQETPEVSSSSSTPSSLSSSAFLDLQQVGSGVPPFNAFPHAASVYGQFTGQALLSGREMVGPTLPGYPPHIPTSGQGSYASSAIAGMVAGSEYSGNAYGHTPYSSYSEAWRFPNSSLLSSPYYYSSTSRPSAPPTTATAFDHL
# Genome polyprotein = Genome polyprotein (dengue virus type 2, UniProt P29990); assay: flavivirus cap methylation enzyme inhibition – biochemical, confirmation dose response, primary screen (AID 588689); assay type: functional
# Sequence of Genome polyprotein (P29990 2492-3391 limits assumed): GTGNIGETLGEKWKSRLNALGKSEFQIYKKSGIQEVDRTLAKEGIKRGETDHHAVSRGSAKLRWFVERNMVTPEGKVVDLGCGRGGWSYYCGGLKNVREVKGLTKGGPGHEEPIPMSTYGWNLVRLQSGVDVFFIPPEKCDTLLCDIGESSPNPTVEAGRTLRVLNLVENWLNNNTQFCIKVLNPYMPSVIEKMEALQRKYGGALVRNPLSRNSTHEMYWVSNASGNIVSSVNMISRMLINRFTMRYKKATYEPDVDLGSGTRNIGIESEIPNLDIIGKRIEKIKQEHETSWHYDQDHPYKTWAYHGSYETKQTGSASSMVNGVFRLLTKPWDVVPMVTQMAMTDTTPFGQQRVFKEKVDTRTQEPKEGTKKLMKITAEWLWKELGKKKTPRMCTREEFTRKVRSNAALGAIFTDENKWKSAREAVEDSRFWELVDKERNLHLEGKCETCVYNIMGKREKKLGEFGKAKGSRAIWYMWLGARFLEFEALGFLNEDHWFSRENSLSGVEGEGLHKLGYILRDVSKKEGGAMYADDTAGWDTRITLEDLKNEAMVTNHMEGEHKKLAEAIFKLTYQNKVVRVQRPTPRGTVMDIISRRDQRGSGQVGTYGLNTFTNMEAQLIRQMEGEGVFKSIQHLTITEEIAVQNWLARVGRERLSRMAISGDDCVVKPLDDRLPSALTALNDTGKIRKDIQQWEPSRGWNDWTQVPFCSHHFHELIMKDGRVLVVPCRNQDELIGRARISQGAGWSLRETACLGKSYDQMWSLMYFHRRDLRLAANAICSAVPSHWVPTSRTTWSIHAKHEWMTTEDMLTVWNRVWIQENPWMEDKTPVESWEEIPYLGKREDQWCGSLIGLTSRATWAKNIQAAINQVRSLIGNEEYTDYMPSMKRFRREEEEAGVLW
# Caspase-3 = target: T3, Caspase-3 (Homo sapiens, UniProt P42574); assay type: functional;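 also: Dose-response selectivity test against caspase-3 for candidate inhibitors of sentrin-specific proteases (SENPs)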
# T3 sequence (P42574 whole entry): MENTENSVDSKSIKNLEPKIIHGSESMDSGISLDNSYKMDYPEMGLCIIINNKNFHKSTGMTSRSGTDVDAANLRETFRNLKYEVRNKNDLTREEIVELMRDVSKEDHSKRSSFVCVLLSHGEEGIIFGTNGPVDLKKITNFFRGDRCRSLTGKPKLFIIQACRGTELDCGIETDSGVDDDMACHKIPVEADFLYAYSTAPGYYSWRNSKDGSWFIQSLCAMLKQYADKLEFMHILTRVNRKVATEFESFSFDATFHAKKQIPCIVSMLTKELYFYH
# [9] = target: T4, Sentrin-specific protease 7 (Homo sapiens, UniProt Q9BQF6); assay type: functional;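 also: Luminescence-based dose-response confirmation of ultra-high-throughput screening hits, measuring inhibition of SENP7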
# T4 sequence (Q9BQF6 whole entry): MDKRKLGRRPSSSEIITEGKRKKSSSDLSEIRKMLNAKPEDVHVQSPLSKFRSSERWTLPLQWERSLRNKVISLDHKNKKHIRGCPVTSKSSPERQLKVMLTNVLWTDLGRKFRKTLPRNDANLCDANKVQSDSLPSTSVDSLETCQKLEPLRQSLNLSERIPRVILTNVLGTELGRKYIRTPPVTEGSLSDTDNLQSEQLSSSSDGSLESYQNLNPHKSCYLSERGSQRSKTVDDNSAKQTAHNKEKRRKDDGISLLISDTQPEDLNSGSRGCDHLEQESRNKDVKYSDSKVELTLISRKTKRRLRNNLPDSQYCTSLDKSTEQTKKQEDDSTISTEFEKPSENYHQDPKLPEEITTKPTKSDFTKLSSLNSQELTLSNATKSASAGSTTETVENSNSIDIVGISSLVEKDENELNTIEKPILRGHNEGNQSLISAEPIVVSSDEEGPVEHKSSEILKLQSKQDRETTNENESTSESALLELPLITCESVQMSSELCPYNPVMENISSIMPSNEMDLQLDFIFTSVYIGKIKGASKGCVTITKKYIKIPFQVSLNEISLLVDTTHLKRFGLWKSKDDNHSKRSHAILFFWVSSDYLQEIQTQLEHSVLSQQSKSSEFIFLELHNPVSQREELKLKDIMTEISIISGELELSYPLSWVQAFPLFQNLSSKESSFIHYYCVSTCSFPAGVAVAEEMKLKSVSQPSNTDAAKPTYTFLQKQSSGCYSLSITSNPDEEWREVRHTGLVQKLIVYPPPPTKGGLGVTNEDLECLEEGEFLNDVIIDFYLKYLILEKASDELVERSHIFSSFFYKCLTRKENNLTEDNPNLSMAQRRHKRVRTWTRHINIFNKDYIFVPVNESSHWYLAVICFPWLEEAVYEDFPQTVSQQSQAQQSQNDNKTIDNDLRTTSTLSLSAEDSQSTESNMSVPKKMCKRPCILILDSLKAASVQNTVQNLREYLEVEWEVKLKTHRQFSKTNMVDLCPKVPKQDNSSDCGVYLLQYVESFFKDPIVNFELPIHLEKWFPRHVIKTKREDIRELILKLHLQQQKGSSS
# [10] = target: T1, Sentrin-specific protease 8; assay type: functional; remark: listed apart in the source
# [11] = target: T5, Sentrin-specific protease 6 (Homo sapiens, UniProt Q9GZR1); assay type: functional;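 also: Luminescence-based dose-response confirmatory assay of SENP6 inhibition, following up an ultra-high-throughput screen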
# T5 sequence (Q9GZR1 whole entry): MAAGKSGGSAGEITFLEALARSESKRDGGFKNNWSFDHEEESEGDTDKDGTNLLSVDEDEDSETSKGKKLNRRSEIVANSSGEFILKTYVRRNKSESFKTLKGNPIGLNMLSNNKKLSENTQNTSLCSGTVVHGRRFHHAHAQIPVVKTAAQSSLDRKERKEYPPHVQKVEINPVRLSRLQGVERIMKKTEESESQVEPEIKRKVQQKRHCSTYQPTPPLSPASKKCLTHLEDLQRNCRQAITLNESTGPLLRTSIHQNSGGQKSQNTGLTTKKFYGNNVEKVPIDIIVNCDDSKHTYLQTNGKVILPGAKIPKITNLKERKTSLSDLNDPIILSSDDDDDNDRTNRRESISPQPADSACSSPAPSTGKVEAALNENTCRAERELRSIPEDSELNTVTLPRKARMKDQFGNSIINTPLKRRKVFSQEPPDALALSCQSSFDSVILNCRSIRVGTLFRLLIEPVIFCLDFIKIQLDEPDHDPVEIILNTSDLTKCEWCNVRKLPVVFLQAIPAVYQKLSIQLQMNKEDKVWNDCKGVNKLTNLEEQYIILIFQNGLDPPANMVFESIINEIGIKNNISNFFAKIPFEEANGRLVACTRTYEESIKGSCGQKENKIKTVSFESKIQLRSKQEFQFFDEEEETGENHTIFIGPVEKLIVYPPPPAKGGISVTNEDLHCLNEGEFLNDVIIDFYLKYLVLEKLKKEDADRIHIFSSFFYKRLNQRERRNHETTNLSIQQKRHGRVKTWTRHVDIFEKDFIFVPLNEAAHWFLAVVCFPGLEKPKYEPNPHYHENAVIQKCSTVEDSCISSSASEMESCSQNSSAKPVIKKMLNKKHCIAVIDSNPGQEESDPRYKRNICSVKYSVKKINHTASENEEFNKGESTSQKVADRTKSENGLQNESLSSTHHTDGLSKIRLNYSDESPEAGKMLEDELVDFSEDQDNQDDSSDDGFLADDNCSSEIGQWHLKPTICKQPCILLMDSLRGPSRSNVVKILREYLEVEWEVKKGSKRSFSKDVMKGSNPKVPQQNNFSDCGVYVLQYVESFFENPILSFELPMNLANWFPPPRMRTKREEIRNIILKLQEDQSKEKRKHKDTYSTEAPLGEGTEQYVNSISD
# [12] = target: 5-hydroxytryptamine receptor 2A (Mus musculus, UniProt P35363); assay type: functional, cell-based;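 also: CHO-K1 cells with tagged receptor and beta-arrestin; agonist potency measured as compound-induced activation of the receptor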
# Sequence of 5-hydroxytryptamine receptor 2A (P35363 whole entry): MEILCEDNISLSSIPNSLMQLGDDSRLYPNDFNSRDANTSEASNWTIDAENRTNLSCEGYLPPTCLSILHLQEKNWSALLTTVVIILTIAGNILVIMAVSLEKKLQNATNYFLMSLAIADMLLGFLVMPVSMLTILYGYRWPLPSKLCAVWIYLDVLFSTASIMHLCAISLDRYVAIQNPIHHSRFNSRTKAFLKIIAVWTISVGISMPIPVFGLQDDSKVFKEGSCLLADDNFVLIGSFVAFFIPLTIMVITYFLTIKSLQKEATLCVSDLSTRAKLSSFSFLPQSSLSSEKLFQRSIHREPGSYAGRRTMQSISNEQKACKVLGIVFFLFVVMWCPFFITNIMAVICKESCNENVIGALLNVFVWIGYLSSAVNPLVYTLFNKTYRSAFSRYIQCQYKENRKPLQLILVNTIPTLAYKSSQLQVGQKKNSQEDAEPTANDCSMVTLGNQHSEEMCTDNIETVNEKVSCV
# Mu-type opioid receptor = Mu-type opioid receptor (Homo sapiens, UniProt P35372); assay type: functional, cell-based;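 also: U2OS cells with beta-arrestin recruitment to OPRM1 by beta-gal complementation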
# Sequence of Mu-type opioid receptor (P35372 whole entry): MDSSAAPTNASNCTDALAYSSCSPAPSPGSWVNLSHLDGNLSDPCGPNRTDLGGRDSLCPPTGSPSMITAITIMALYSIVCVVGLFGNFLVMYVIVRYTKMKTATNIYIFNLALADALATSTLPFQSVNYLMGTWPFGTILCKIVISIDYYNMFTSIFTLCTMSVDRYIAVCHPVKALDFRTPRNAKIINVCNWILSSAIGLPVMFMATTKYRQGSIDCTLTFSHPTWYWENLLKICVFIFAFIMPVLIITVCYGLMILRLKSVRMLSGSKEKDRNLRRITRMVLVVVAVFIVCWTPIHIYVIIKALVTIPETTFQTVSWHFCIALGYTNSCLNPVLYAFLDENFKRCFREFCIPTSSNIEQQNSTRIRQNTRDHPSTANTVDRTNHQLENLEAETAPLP
# [13] = target: T6, DNA repair protein RAD52 homolog (Homo sapiens, UniProt P43351); assay type: functional, biochemical
# T6 sequence (P43351 whole entry): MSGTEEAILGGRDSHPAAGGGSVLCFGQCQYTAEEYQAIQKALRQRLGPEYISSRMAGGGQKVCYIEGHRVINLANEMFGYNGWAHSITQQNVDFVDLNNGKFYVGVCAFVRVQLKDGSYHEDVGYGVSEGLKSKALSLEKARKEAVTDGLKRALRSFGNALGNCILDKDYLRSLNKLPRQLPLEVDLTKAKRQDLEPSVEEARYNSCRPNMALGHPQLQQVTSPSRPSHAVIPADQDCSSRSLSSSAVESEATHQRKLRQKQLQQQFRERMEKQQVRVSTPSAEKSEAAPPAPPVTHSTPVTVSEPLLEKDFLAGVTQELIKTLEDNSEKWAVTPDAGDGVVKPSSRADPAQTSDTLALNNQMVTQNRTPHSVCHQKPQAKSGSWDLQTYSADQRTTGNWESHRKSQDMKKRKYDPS
# Vero [14] = assay: cells; assay type: functional; settings: Chlorocebus sabaeus
# Protein Tat = target: T7, Protein Tat (Human immunodeficiency virus type 1 group M subtype B (isolate HXB2)(HIV-1), UniProt P04608); assay type: functional;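 also: tat binding to TAR RNA read out by fluorescence polarization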
# T7 sequence (P04608 whole entry): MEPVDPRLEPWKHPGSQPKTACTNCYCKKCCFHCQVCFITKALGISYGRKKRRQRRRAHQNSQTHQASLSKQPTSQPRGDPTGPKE
# [15] = viability loss in THP-1 monocytes – THP-1 cells, cytotoxicity control for Vif-APOBEC3G degradation inhibitor project, dose response (AID 1117359); assay type: functional; settings: THP-1
# Nonstructural protein 1 = Nonstructural protein 1 (Influenza A virus, UniProt Q194T2); assay type: functional, Influenza A virus (A/California/07/2009(H1N1))
# Sequence of Nonstructural protein 1 (Q194T2 whole entry): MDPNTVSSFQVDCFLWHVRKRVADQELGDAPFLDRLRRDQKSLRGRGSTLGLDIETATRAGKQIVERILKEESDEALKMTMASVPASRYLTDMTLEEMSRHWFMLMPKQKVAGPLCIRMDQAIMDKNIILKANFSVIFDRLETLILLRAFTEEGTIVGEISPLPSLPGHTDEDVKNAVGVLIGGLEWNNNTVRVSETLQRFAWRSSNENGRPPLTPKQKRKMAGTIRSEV
# [16] = HepG2 cell cytotoxicity, dose response, cytotoxicity control for non-replicating M. tuberculosis project (AID 489018); assay type: functional; settings: Mycobacterium tuberculosis
# [17] = THP-1 cell cytotoxicity, dose response, cytotoxicity control for non-replicating M. tuberculosis project (AID 489025); assay type: functional
smiles,measurement,setting,value
Cc1cc(C)cc(/N=C/c2ccc([N+](=O)[O-])s2)c1,IC50,[1],14.1 µM (active)
same,IC50,[2],2.56 µM (active)
same,AC50,[3],4.15 µM (active)
Cc1cc(C)c2nc(-c3ccccn3)cc(C(=O)NCc3ccco3)c2c1,CC50,Vero [4],> 40 µM (active)
same,IC50,Estrogen receptor,> 50 µM (not active)
COc1cccc(C(c2nnnn2-c2ccc3c(c2)OCCO3)N2CCC(n3c(O)nc4ccccc43)CC2)c1OC (centres undefined),AC50,[5],> 70 µM (inactive)
same,AC50,[6],5.67 µM (active)
same,AC50,[7],3.74 µM (active)
same,IC50,[8],> 73.4 µM (inactive)
same,AC50,Paired box protein Pax-8,1.52 µM (active)
Cc1nn(-c2cccc(Cl)c2)c2nc(-c3ccco3)cc(C(=O)O)c12,CC50,Vero [4],> 40 µM (active)
same,IC50,Genome polyprotein,> 100 µM (active)
COc1cc2c(C(=O)N3CCN(c4cccc(Cl)c4)CC3)cn(C)c(=O)c2cc1OC,IC50,[8],20.5 µM (inactive)
COc1ccc(C(N)=NOC(=O)Cc2cccs2)cc1,IC50,Caspase-3,32 µM (active)
same,IC50,[9],11.3 µM (active)
same,IC50,[10],6.43 µM (active)
same,IC50,[11],37.2 µM (active)
Clc1ncc(CN2CCN(c3ccccc3)CC2)s1,EC50,[12],0.815 µM (active)
same,EC50,Mu-type opioid receptor,92.5 µM (inactive)
C=CCN1CCc2nc(N)sc2CC1 [TALIPEXOLE HYDROCHLORIDE],EC50,[12],0.0137 µM (active)
same,EC50,Mu-type opioid receptor,92.6 µM (inactive)
same,AC50,[13],6.04 µM (active)
COc1ccc(C(=O)COC(=O)c2n[nH]c3ccccc23)c(OC)c1,IC50,Caspase-3,33 µM (active)
same,IC50,[9],8.72 µM (active)
same,IC50,[10],40.3 µM (active)
same,IC50,[11],29.9 µM (active)
O=[N+]([O-])c1cc2no[n+]([O-])c2cc1N1CCCCC1,CC50,Vero [14],24.7 µM (active)
same,CC50,Vero [4],27.6 µM (active)
same,IC50,Protein Tat,> 100 µM (active)
same,AC50,[3],1.62 µM (active)
same,CC50,[15],36.9 µM (active)
same,IC50,Nonstructural protein 1,31.7 µM (active)
same,IC50,Genome polyprotein,6.38 µM (active)
CCSc1nsc(NC(=O)Nc2ccc(F)cc2F)n1,IC50,Caspase-3,39.5 µM (active)
same,IC50,[9],13.7 µM (active)
same,CC50,[16],> 20 µM (active)
same,IC50,[10],> 100 µM (inactive)
same,CC50,[17],28.3 µM (active)
same,IC50,[11],> 100 µM (inactive)
